Assay results published in patent US9211310B2, “Use of a Chinese medicine composition in preparing medicaments for treating secondary prevention of myocardial infarction” (TASLY PHARMACEUTICAL GROUP CO., LTD, priority 2010, dated 2015).

Tested on: patients after acute myocardial infarction
Test: Life quality, Seattle Angina Questionnaire (SAQ), same clinical trial
Format: in vivo, human
Details: FAS
Excerpt: 3508 patients who were in accordance with the diagnostic standards of AMI for 28 days to 2 years and differentiated as Qi deficiency and blood stagnation syndrome by TCM were studied. 0.5 g Chinese medicine composition prepared by the method of EXAMPLE 1 (Coded as QSYQ) was administrated half an hour after meal, 3 times per day.
There were 19 questions in the Seattle angina questionnaire (SAQ), including 5 parts: physical limitation (PL), anginal stability (AS), anginal frequency (AF), treatment satisfaction (TS) and disease perception (DP). After being given necessary explanation by doctors, the questions were answered independently by patients.
They included the overall survival time, angina pectoris score, TCM symptom score and life quality score, where angina pectoris score, TCM symptom score and life quality score were evaluated at randomization, in 1st, 3rd, 6th, 9th, 12th month after treatment and 18th month after follow-up.
All evaluation results of SAQ were described during the period of observation, and Wilcoxon rank sum test was used for inter-group comparison.
The evaluation results in the SAQ were depicted in different observations, and inter-group comparison was tested by Wilcoxon Rank-sum test.

CC(=O)Oc1ccccc1C(=O)O [Control group, aspirine]
SAQ Question 1-2 Moderately limited, number of patients (1 month after treatment): 14
SAQ Question 1-2 Moderately limited, percent of patients (1 month after treatment): (0.80%)
SAQ Question 1-2 Not limited, number of patients (1 month after treatment): 1575
SAQ Question 1-2 Not limited, percent of patients (1 month after treatment): (90.36%)
SAQ Question 1-2 Other reasons, number of patients (1 month after treatment): 6
SAQ Question 1-2 Other reasons, percent of patients (1 month after treatment): (0.34%)
SAQ Question 1-2 Severely limited, number of patients (1 month after treatment): 0
SAQ Question 1-2 Severely limited, percent of patients (1 month after treatment): (0.00%)
SAQ Question 1-2 Slightly limited, percent of patients (1 month after treatment): (6.66%)
SAQ Question 1-6: Mildly limited, patients (%) (1 month after treatment): (18.54%)
SAQ Question 1-6: Moderately limited, patients (%) (1 month after treatment): (14.85%)
SAQ Question 1-6: Not limited, patients (%) (1 month after treatment): (29.59%)
SAQ Question 1-6: Other reasons, patients (%) (1 month after treatment): (0.81%)
SAQ Question 1-6: Severely limited, patients (%) (1 month after treatment): (5.18%)
SAQ Question 1-6: Slightly limited, patients (%) (1 month after treatment): (31.03%)
SAQ Question 1-7: Mildly limited, patients (%) (1 month after treatment): (23.73%)
SAQ Question 1-7: Moderately limited, patients (%) (1 month after treatment): (17.45%)
SAQ Question 1-7: Not limited, patients (%) (1 month after treatment): (12.86%)
SAQ Question 1-7: Other reasons, patients (%) (1 month after treatment): (2.85%)
SAQ Question 1-7: Severely limited, patients (%) (1 month after treatment): (17.68%)
SAQ Question 1-7: Slightly limited, patients (%) (1 month after treatment): (25.42%)
SAQ Question 1-8: Mildly limited, patients (%) (1 month after treatment): (24.13%)
SAQ Question 1-8: Moderately limited, patients (%) (1 month after treatment): (20.52%)
SAQ Question 1-8: Not limited, patients (%) (1 month after treatment): (9.01%)
SAQ Question 1-8: Other reasons, patients (%) (1 month after treatment): (2.79%)
SAQ Question 1-8: Severely limited, patients (%) (1 month after treatment): (22.27%)
SAQ Question 1-8: Slightly limited, patients (%) (1 month after treatment): (21.28%)
8th question: Dissatisfied, patients (%) (3 months after treatment): (0.17%)
8th question: Highly satisfied, patients (%) (3 months after treatment): (19.09%)
8th question: Mostly dissatisfied, patients (%) (3 months after treatment): (3.10%)
8th question: Mostly satisfied, patients (%) (3 months after treatment): (52.81%)
8th question: Partly satisfied, patients (%) (3 months after treatment): (24.83%)
9th question: Few, patients (%) (3 months after treatment): (31.88%)
9th question: Mild, patients (%) (3 months after treatment): (33.54%)
9th question: Moderate, patients (%) (3 months after treatment): (15.60%)
9th question: Severe, patients (%) (3 months after treatment): (1.49%)
9th question: Uneffective, patients (%) (3 months after treatment): (17.49%)
10th question: Dissatisfied, patients (%) (3 months after treatment): (21.33%)
10th question: Highly satisfied, patients (%) (3 months after treatment): (4.70%)
10th question: Mostly dissatisfied, patients (%) (3 months after treatment): (22.19%)
10th question: Mostly satisfied, patients (%) (3 months after treatment): (24.20%)
10th question: Partly satisfied, patients (%) (3 months after treatment): (27.58%)
11th question: Continuously worried, patients (%) (3 months after treatment): (5.39%)
11th question: No worried, patients (%) (3 months after treatment): (4.87%)
11th question: Occasionally worried, patients (%) (3 months after treatment): (40.94%)
11th question: Often worried, patients (%) (3 months after treatment): (18.29%)
11th question: Seldom worried, patients (%) (3 months after treatment): (30.50%)
SAQ 4th question, 1-2 times per week: % of patients (3 months after treatment): (16.69%)
SAQ 4th question, 1-2 times per week: number of patients (3 months after treatment): 291
SAQ 4th question, 1-3 times per day: % of patients (3 months after treatment): (5.56%)
SAQ 4th question, 1-3 times per day: number of patients (3 months after treatment): 97
SAQ 4th question, <1 time per week: % of patients (3 months after treatment): (11.47%)
SAQ 4th question, <1 time per week: number of patients (3 months after treatment): 200
SAQ 4th question, Not used: % of patients (3 months after treatment): (55.50%)
SAQ 4th question, Not used: number of patients (3 months after treatment): 968
SAQ 4th question, ≧3 times per week: % of patients (3 months after treatment): (10.72%)
SAQ 4th question, ≧3 times per week: number of patients (3 months after treatment): 187
SAQ 4th question, ≧4 times per day: % of patients (3 months after treatment): (0.06%)
SAQ 4th question, ≧4 times per day: number of patients (3 months after treatment): 1
SAQ 5th question, Few: % of patients (3 months after treatment): (24.60%)
SAQ 5th question, Few: number of patients (3 months after treatment): 429
SAQ 5th question, Mild: % of patients (3 months after treatment): (26.26%)
SAQ 5th question, Mild: number of patients (3 months after treatment): 458
SAQ 5th question, Moderate: % of patients (3 months after treatment): (15.65%)
SAQ 5th question, Moderate: number of patients (3 months after treatment): 273
SAQ 5th question, None: % of patients (3 months after treatment): (27.41%)
SAQ 5th question, None: number of patients (3 months after treatment): 478
SAQ 5th question, Not medicated by doctors: % of patients (3 months after treatment): (4.36%)
SAQ 5th question, Not medicated by doctors: number of patients (3 months after treatment): 76
SAQ 5th question, Severe: % of patients (3 months after treatment): (1.72%)
SAQ 5th question, Severe: number of patients (3 months after treatment): 30
SAQ 6th question, Dissatisfied: % of patients (3 months after treatment): (0.23%)
SAQ 6th question, Dissatisfied: number of patients (3 months after treatment): 4
SAQ 6th question, Highly satisfied: % of patients (3 months after treatment): (19.61%)
SAQ 6th question, Highly satisfied: number of patients (3 months after treatment): 342
SAQ 6th question, Mostly dissatisfied: % of patients (3 months after treatment): (2.64%)
SAQ 6th question, Mostly dissatisfied: number of patients (3 months after treatment): 46
SAQ 6th question, Mostly satisfied: % of patients (3 months after treatment): (51.83%)
SAQ 6th question, Mostly satisfied: number of patients (3 months after treatment): 904
SAQ 6th question, Partly satisfied: % of patients (3 months after treatment): (25.69%)
SAQ 6th question, Partly satisfied: number of patients (3 months after treatment): 448
SAQ 7th question, Dissatisfied: % of patients (3 months after treatment): (0.11%)
SAQ 7th question, Dissatisfied: number of patients (3 months after treatment): 2
SAQ 7th question, Highly satisfied: % of patients (3 months after treatment): (22.68%)
SAQ 7th question, Highly satisfied: number of patients (3 months after treatment): 395
SAQ 7th question, Mostly dissatisfied: % of patients (3 months after treatment): (1.95%)
SAQ 7th question, Mostly dissatisfied: number of patients (3 months after treatment): 34
SAQ 7th question, Mostly satisfied: % of patients (3 months after treatment): (54.08%)
SAQ 7th question, Mostly satisfied: number of patients (3 months after treatment): 942
SAQ 7th question, Partly satisfied: % of patients (3 months after treatment): (21.18%)
SAQ 7th question, Partly satisfied: number of patients (3 months after treatment): 369
SAQ Question 1-1 Mildly limited, number of patients (3 months after treatment): 26
SAQ Question 1-1 Mildly limited, percent of patients (3 months after treatment): (1.49%)
SAQ Question 1-1 Moderately limited, number of patients (3 months after treatment): 7
SAQ Question 1-1 Moderately limited, percent of patients (3 months after treatment): (0.40%)
SAQ Question 1-1 Not limited, number of patients (3 months after treatment): 1634
SAQ Question 1-1 Not limited, percent of patients (3 months after treatment): (93.69%)
SAQ Question 1-1 Other reasons, number of patients (3 months after treatment): 4
SAQ Question 1-1 Other reasons, percent of patients (3 months after treatment): (0.23%)
SAQ Question 1-1 Severely limited, number of patients (3 months after treatment): 1
SAQ Question 1-1 Severely limited, percent of patients (3 months after treatment): (0.06%)
SAQ Question 1-1 Slightly limited, number of patients (3 months after treatment): 72
SAQ Question 1-1 Slightly limited, percent of patients (3 months after treatment): (4.13%)
SAQ Question 1-2 Mildly limited, number of patients (3 months after treatment): 23
SAQ Question 1-2 Mildly limited, percent of patients (3 months after treatment): (1.32%)
SAQ Question 1-2 Moderately limited, number of patients (3 months after treatment): 10
SAQ Question 1-2 Moderately limited, percent of patients (3 months after treatment): (0.57%)
SAQ Question 1-2 Not limited, number of patients (3 months after treatment): 1603
SAQ Question 1-2 Not limited, percent of patients (3 months after treatment): (91.92%)
SAQ Question 1-2 Other reasons, number of patients (3 months after treatment): 7
SAQ Question 1-2 Other reasons, percent of patients (3 months after treatment): (0.40%)
SAQ Question 1-2 Severely limited, number of patients (3 months after treatment): 0
SAQ Question 1-2 Severely limited, percent of patients (3 months after treatment): (0.00%)
SAQ Question 1-2 Slightly limited, number of patients (3 months after treatment): 101
SAQ Question 1-2 Slightly limited, percent of patients (3 months after treatment): (5.79%)
SAQ Question 1-6: Mildly limited, patients (%) (3 months after treatment): (18.23%)
SAQ Question 1-6: Moderately limited, patients (%) (3 months after treatment): (13.05%)
SAQ Question 1-6: Not limited, patients (%) (3 months after treatment): (31.45%)
SAQ Question 1-6: Other reasons, patients (%) (3 months after treatment): (0.92%)
SAQ Question 1-6: Severely limited, patients (%) (3 months after treatment): (4.14%)
SAQ Question 1-6: Slightly limited, patients (%) (3 months after treatment): (32.20%)
SAQ Question 1-7: Mildly limited, patients (%) (3 months after treatment): (23.77%)
SAQ Question 1-7: Moserately limited, patients (%) (3 months after treatment): (15.07%)
SAQ Question 1-7: Not limited, patients (%) (3 months after treatment): (13.91%)
SAQ Question 1-7: Other reasons, patients (%) (3 months after treatment): (3.01%)
SAQ Question 1-7: Severely limited, patients (%) (3 months after treatment): (15.88%)
SAQ Question 1-7: Slightly limited, patients (%) (3 months after treatment): (28.35%)
SAQ Question 1-8: Mildly limited, patients (%) (3 months after treatment): (25.55%)
SAQ Question 1-8: Moderately limited, patients (%) (3 months after treatment): (17.89%)
SAQ Question 1-8: Not limited, patients (%) (3 months after treatment): (10.69%)
SAQ Question 1-8: Other reasons, patients (%) (3 months after treatment): (3.02%)
SAQ Question 1-8: Severely limieted, patients (%) (3 months after treatment): (21.02%)
SAQ Question 1-8: Slightly limited, patients (%) (3 months after treatment): (21.84%)
8th question: Dissatisfied, patients (%) (6 months after treatment): (0.17%)
8th question: Highly satisfied, patients (%) (6 months after treatment): (20.30%)
8th question: Mostly satisfied, patients (%) (6 months after treatment): (56.59%)
8th question: Partly satisfied, patients (%) (6 months after treatment): (20.70%)
9th question: Few, patients (%) (6 months after treatment): (34.75%)
9th question: Mild, patients (%) (6 months after treatment): (34.63%)
9th question: Severe, patients (%) (6 months after treatment): (0.86%)
9th question: Uneffective, patients (%) (6 months after treatment): (18.12%)
10th question: Dissatisfied, patients (%) (6 months after treatment): (20.87%)
10th question: Highly satisfied, patients (%) (6 months after treatment): (4.64%)
10th question: Mostly dissatisfied, patients (%) (6 months after treatment): (21.56%)
10th question: Mostly satisfied, patients (%) (6 months after treatment): (26.61%)
10th question: Partly satisfied, patients (%) (6 months after treatment): (26.32%)
11th question: Continuously worried, patients (%) (6 months after treatment): (4.42%)
11th question: No worried, patients (%) (6 months after treatment): (4.93%)
11th question: Occasionally worried, patients (%) (6 months after treatment): (41.69%)
11th question: Often worried, patients (%) (6 months after treatment): (14.85%)
11th question: Seldom worried, patients (%) (6 months after treatment): (34.12%)
SAQ 4th question, 1-2 times per week: % of patients (6 months after treatment): (17.55%)
SAQ 4th question, 1-2 times per week: number of patients (6 months after treatment): 306
SAQ 4th question, 1-3 times per day: % of patients (6 months after treatment): (4.70%)
